For orientation: inhibition means how much of the control response was suppressed.

The target of assay [1] is GABA-A receptor; alpha-1/beta-2/gamma-2 (Homo sapiens) (UniProt P14867+P47870+P18507). Put plainly: Displacement of [3H]muscimol from recombinant human GABAalpha1beta2gamma2 at 10 uM after 120 mins by scintillation counting method relative to control. In kind it is protein-complex assay. In general terms: Loss of bound radioactivity is the signal in a displacement assay; it reports binding, not function.

Assay [2] deals with Topoisomerase IV (Staphylococcus aureus) (UniProt P0C1U9+P0C1S7). As to the kind of experiment: Inhibition of Staphylococcus aureus DNA topoisomerase 4 at 10 uM using interlinked kDNA as substrate after 1 hr by ethidium bromide staining-based agarose gel electrophoresis relative to control. In kind it is protein-complex assay.
In assay [3] the target is Indoleamine 2,3-dioxygenase 1 (Homo sapiens) (UniProt P14902). As to the kind of experiment: Inhibition of human IDO at 10 uM using L-tryptophan as substrate after 30 mins by Ehrlich's reagent based assay relative to control.
A further assay deals with Escherichia coli. Put plainly: Antibacterial activity against Escherichia coli ATCC 25922 after 18 to 24 hrs by microdilution assay. It counts as functional, organism-based.
In assay [4] the target is T1, D-alanine--D-alanine ligase (Enterococcus faecalis (strain ATCC 700802 / V583)) (UniProt Q47758).
T1 sequence (whole entry): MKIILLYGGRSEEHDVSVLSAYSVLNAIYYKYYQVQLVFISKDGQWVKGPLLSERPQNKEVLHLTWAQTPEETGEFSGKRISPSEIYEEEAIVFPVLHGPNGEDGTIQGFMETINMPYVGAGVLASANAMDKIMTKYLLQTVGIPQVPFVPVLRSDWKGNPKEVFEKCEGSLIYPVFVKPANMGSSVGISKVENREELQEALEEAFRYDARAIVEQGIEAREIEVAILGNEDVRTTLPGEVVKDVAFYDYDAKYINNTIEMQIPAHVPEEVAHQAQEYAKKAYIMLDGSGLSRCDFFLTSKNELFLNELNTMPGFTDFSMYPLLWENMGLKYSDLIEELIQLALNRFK
Put plainly: Inhibition of Enterococcus faecalis JH2-2 C-terminal 6His-tagged DdlB expressed in Escherichia coli LMG194 assessed as Vmax/Km of ATP at 1 uM by Biomol Green reagent assay (reference value: 0.3 /min).

For assay [5], the target named is T1, D-alanine--D-alanine ligase (Enterococcus faecalis (strain ATCC 700802 / V583)). As to the kind of experiment: Reversible inhibition of Enterococcus faecalis JH2-2 C-terminal 6His-tagged DdlB expressed in Escherichia coli LMG194 at 3 uM preincubated for 30 mins followed by 10 times dilution followed by 20 mins incubation with substrate by Biomol Green reagent assay.

Assay [6] addresses Cannabinoid receptor 1 (Homo sapiens) (UniProt P21554). Put plainly: Displacement of [3H]CP 55940 from human recombinant CB1 receptor at 10 uM after 120 mins by scintillation counting analysis relative to control.
The subject of assay [7] is Staphylococcus aureus. Put plainly: Inhibition of Ddl in Staphylococcus aureus ATCC 25923 assessed as increase in [D-Ala]/[D-Ala-D-Ala] ratio at 2 times MIC after 30 mins by LC-MS/MS analysis.
Assay [8] deals with Staphylococcus aureus. Put plainly: Bactericidal activity against Staphylococcus aureus ATCC 25923 assessed as reduction of bacterial load at 2 to 5 times MIC after 24 hrs by time kill assay. In kind it is functional, organism-based.

Activity calls are given as the source filed them. The calls are words filed in the database; no cut-off is given here.

Indoleamine 2,3-dioxygenase 1 (Homo sapiens), sequence (P14902 whole entry, looked up): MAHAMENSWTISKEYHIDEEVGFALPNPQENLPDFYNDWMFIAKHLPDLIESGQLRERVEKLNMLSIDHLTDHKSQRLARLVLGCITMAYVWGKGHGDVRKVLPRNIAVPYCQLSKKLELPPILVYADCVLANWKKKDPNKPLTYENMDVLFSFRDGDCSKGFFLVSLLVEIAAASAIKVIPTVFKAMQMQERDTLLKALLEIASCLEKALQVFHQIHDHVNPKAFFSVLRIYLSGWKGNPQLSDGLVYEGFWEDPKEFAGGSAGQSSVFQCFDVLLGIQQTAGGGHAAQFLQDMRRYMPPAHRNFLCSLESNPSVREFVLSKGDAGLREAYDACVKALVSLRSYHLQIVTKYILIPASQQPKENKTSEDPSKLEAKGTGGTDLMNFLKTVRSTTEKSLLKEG
Cannabinoid receptor 1 (Homo sapiens), sequence (P21554 whole entry): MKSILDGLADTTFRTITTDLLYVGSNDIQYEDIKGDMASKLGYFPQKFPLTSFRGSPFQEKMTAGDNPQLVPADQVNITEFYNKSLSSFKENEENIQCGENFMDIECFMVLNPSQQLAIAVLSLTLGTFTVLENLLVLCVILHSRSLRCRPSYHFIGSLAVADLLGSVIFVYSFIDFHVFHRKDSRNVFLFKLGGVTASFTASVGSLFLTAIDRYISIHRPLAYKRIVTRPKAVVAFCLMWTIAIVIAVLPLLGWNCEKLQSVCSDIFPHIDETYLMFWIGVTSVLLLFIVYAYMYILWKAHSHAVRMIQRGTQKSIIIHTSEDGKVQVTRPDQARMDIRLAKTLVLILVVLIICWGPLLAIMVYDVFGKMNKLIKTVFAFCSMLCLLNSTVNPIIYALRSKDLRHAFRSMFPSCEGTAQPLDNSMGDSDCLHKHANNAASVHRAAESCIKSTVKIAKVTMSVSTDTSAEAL

On to `O=C(NNC(=S)Nc1ccc(Cl)c(Cl)c1)c1ccccc1O`, for which the inhibition in assay [1], in assay [2], in [3] and in assay [6] was less than 30% each time. Further, in the assay with Escherichia coli, the MIC result was “inactive”. The Vmax/Km in [4] was 0.33 min⁻¹. Besides, the inhibition result (in assay [5]; in the assay with Staphylococcus aureus [7]) was “Active” in each case. In the assay on Staphylococcus aureus [8], the outcome was Active.

Values taken from ChEMBL document CHEMBL4382202, “1-(2-Hydroxybenzoyl)-thiosemicarbazides are promising antimicrobial agents targeting d-alanine-d-alanine ligase in bacterio” (Eur J Med Chem, 2018).
